# “Also recorded” adds a separate entry of the source.
# Legend:
# [1] = system: Q-neurons in the anteroventral periventricular nucleus (AVPe); assay: QIH induction by CNO with body temperature and extracellular tetrode recording; type: in vivo, mice
# Experimental: All animals were single-housed prior to surgery. During surgery, mice were anesthetized with MMB (a cocktail of medetomidine, midazolam, and butorphanol) and 500 nL of AAV-hSyn-DIO-hM3D(Gq)-mCherry vector was infused through a small craniotomy above AVPe (ML ±0.3; AP +0.38; DV −5.0) at a rate of 50 nL per minute with a micropump syringe (World Precision Instrument). After infusion, the 35 G needle stayed at the infusion site for at least 15 minutes to allow diffusion of the vector. After surgery, animals were carefully monitored to full recovery. For LFP and single/multi-unit recording, we implanted a microdrive consisting of 9 independently adjustable tetrodes (14 um diameter, nichrome wire, gold plated to 200-300 kΩ). In the 2-3 weeks after surgery the depth of the tetrodes were slowly and manually adjusted until stable recording of LFP signals or separatable spike clusters was observed. All adjustments were conducted in a highly familiar small plastic bucket located in the recording room while the animals moved and behaved freely.
# (§1) Two to three weeks after surgery, mice were first habituated to intraperitoneal (i.p.) injection of saline four times (once per day). On the day of QIH induction, mice were allowed to be habituated to the experimental room (15C) for 1 hour. A dose of 1 mg/kg of clozapine N-oxide (CNO) was i.p. injected to induce QIH in the same experimental room under darkness and low ambient temperatures of about 18-19 degrees celsius. Mice were allowed to stay in the room for 48 hours, and then returned to the housing colony once the QIH state had wore off.
# All data were acquired using 32-channel Digital Lynx 4SX acquisition system (Neuralynx). The local field potential (LFP) was filtered at 2-9000 Hz. Spike waveforms were filtered between 0.6-6 kHz and those above a peak threshold of […] were time-stamped and digitized at 32,556 Hz. Spikes were manually sorted using SpikeSort3D software (Neuralynx). In short, waveform amplitudes of all spikes recorded from three channels were projected to three dimensional space and putative units were clustered. This procedure was repeated for all combinations of channels and also for energy of spikes. […] A low-pass filter with a cut-off frequency equal to half the target sampling frequency was applied to the LFP prior to downsampling to prevent signal distortion.
# [2] = system: contextual fear memory; assay: Contextual fear conditioning after QIH; type: in vivo, mice; details: after 48 hours of QIH and 72 hours recovery
# Experimental: as §1
# Mice were first handled by an experimenter for at least 5 days to reduce their anxiety. During conditioning, the animals were first allowed to explore the context A (30.5L×24.1W×21H cm, metal grid floor, ethanol odor, white light, white noise) and then received 5 foot shocks (0.75 mA for 2 seconds with 30 seconds inter-shock-intervals). Next day, the same animals returned to the shocked context A and a novel neutral context B (30.5L×24.1W×21H cm, plastic flat floor, acetic acid odor, NIR light under darkness, triangle roof). After QIH induction and recovery, the mice were retested both in contexts A and B.
# [3] = system: pilocarpine model of TLE; assay: SRS onset monitoring after QIH induction during the latent period, pilocarpine model of TLE; type: in vivo, mice
# Experimental: as §1
# (§2) On the day of seizure injection, mice were first i.p. injected with 0.07 mL of scopolamine solution (0.5 mg/mL) to prevent adverse peripheral side effects. Thirty minutes later, 280 mg/kg pilocarpine solution was i.p. injected to produce acute seizure. After the mice reach stage 3, 4, or 5 on the Racine scale of behavioral seizures (modified version below), the development of status epilepticus (SE) is confirmed as a continuous state of seizures characterised by a behavioral expression such as a prominent head tic, rigidity of body and tail, and immobility. One to 3 hours after the initial onset of SE, 0.04 mL of Midazolam (5 mg/mL) was i.p. injected to attenuate the seizures.
# Animals are observed by trained personnel on a daily basis, starting with the first day after QIH exit. The monitoring process is performed while animals are in their homecages, in the experimental room. Observation is conducted for one hour per mouse per day using the scale above (table 1) to identify the severity of the behavioral seizures as they occur. For each mouse, the day on which the first seizure is observed, as well as the perceived severity, are recorded.
# [4] = over four thousand adult patients (NPL17); cited from earlier work
# [5] = Seizure induction with pilocarpine; type: in vivo, mice
# Experimental: as §2
# [6] = applied on the epileptogenic zone; even after decades of monitoring (NPL22); cited from earlier work
smiles,measurement,setting,value
"C[N+]1([O-])CCN(C2=Nc3cc(Cl)ccc3Nc3ccccc32)CC1 [CNO, clozapine-N-oxide]",body temperature during QIH,"[1]; after CNO injection (1 mg/kg i.p.), Qrfp-iCre mice with AAV-hSyn-DIO-hM3D(Gq)-mCherry in AVPe, FIG. 1A",reduction in their body temperature
same,spike activity of individual pyramidal cells in the dorsal CA1,"[1]; after QIH induction, FIG. 1C",rapid reduction in their spike activity
same,power spectral density of LFP in the dorsal CA1,"[1]; during QIH, FIG. 1B",substantial reduction in broad frequency ranges
same,time mice stay under QIH after injection,"[1]; intraperitoneal CNO, spontaneous awakening and rewarming afterwards",48 h
same,multi-unit activity recorded from the hypothalamus,"[1]; upon QIH induction, FIG. 1D",reduced upon induction of QIH
same,freezing behavior in Post-Test A,"[2]; vs control animals without induction, FIG. 3B",comparable level of freezing behavior
same,freezing in Post-Test B (neutral context),[2]; all groups,negligible degree of freezing
same,SRS onset (duration of the latent phase),"[3]; QIH induced 24 h after midazolam, 48 h QIH, vs control animals in QIH chamber without induction, FIG. 2B",drastic delay in the SRS onset; also recorded: significantly delayed
same,severity of SRS (Racine scale),"[3]; QIH vs no QIH during the latent phase, FIG. 2C",no difference in the severity in the SRS
same,time of SRS after induction of the hibernation-like state,[3]; as opposed to 1-2 weeks in the rodent model,several months
CC[C@@H](C(N)=O)N1CCCC1=O [Levetiracetam],rate of psychiatric and behavioral side effects among the medications,[4],highest rates of side effects
"CC[C@@H]1C(=O)OC[C@@H]1Cc1cncn1C [Pilocarpine, pilocarpine]",time to seizures after injection,[5]; 280 mg/kg i.p.,thirty
same,duration of prolonged seizure (status epilepticus),[5]; before termination with an anticonvulsant drug,about two
NS(=O)(=O)Cc1noc2ccccc12 [Zonisamide],rate of psychiatric and behavioral side effects among the medications,[4],highest rates of side effects
CCCl [ethyl chloride],seizure outcome,[6],complete remission from seizures
